# Results taken from US11234985B2, “Antiviral therapy” (VIIV HEALTHCARE COMPANY, priority 2010, dated 2022).
# System: HIV-1 (strain IIIB)
# Assay: Antiviral HIV activity in combination, tetrazolium-based (MTS) colorimetric checkerboard assay in MT-4 cells
# Type: cell-based
# Conditions: HIV-1 IIIB infected MT-4 cells, 5 days
# Procedure: Antiviral HIV activity was measured by means of a tetrazolium-based colorimetric procedure in the human T-cell leukemia virus (HTLV-1) transformed cell line MT-4. Aliquots of test compound were diluted vertically across a deep-well master assay plate, in medium (RPMI 1640, 10% vol./vol. fetal bovine serum (FBS), and 10 μg/mL gentamicin), at concentrations that were approximately 40-fold higher than the final assay concentration. Serial dilutions were made at either 1:2 or 1:3.16 ratios. HIV inhibitors were diluted horizontally across master assay plates, also in concentrations that were approximately 40-fold higher than the final assay concentration. Small aliquots of both the vertically-diluted and the horizontally-diluted compounds were combined in daughter plates using an automated 96-well pipetting system (RapidPlate-96, Zymark Corp.). Checkerboard style dilutions were arranged so that every concentration of test compound was tested in the presence and absence of every concentration of the HIV inhibitors. Anti-HIV activity tests were performed in triplicate assays, or more, of each combination. Exponentially growing MT-4 cells were harvested and centrifuged at 1,000 rpm for 10 minutes in a Jouan centrifuge (Model CR 4 12). Cell pellets were re-suspended in fresh medium (RPMI 1640, 20% vol./vol. FBS, 20% vol./vol. IL-2, and 10 μg/mL gentamicin) to a density of 1.25×10^6 cells/mL. Cell aliquots were infected by the addition of HIV-1 (strain IIIB) diluted to give a viral multiplicity of infection (MOI) of 73 pfU per 1×10^4 cells. A similar cell aliquot was diluted with medium to provide a mock-infected control. Cell infection was allowed to proceed for 1 hour at 37° C. in a tissue culture incubator with humidified 5% CO2 atmosphere. After the 1 hour incubation the virus/cell suspension was added to each well of the plates containing pre-diluted compounds. Plates were then placed in a tissue culture incubator with humidified 5% CO2 for 5 days. At the end of the incubation period, […] of CellTiter 96 MTS reagent (Promega no. G3581) was added to each well of the incubation plate. Plates were incubated at 37° C. for 2 to 3 hours to allow for color development. O.D. was measured at […] using a microplate absorbance reader (Tecan no. 20-300).
# HIV-1 strain IIIB, wild-type laboratory strain, virus titer=6.896 E4 TCID50/mL.
# Although some assay formats might theoretically miss antagonism due to combination cytotoxicity, the approach described here should not miss an antagonistic effect. The readout in the MT-4 cell assay utilizes MTS, a tetrazolium-based staining reagent where changes in optical density (O.D.) of the reagent are used to estimate the total cell number remaining after treatment. Final MT-4 cell numbers may decrease due to two effects. First, an HIV-induced cytotoxicity may occur when HIV kills greater than 75% of the MT-4 cells during the 5 days following infection. Second, a compound-induced cytotoxicity may occur, where the compound either directly kills the MT-4 cells or prevents cell growth (stasis) over the 5 days in either infected or uninfected cells. In either of these situations the O.D. is low as compared with infected cells protected by anti-HIV-1 compounds or relative to untreated and uninfected control cells. Since both cytotoxic effects and antagonism of anti-HIV activity would lead to lower O.D. we should not miss an antagonistic effect due to combination cytotoxicity, but could underestimate synergistic combinations.
# Within assay combination cytotoxicity was evaluated by comparing wells containing the uninfected MT-4 cells from the assay plates that contained the highest concentration of test compound or the comparator compound, with wells containing […] MT-4 cells under the corresponding highest combination concentrations. For each of these values there is one well per assay plate and thus at least 3 wells per combination assay. […]
smiles,measurement,setting,value
C[C@@H]1CCO[C@H]2Cn3cc(C(=O)NCc4ccc(F)cc4F)c(=O)c(O)c3C(=O)N12 [formula (I)],interaction (deviation from dosewise additivity) of anti-HIV activity,in combination with abacavir,synergistic
same,interaction (deviation from dosewise additivity) of anti-HIV activity,in combination with adefovir,additive
same,interaction (deviation from dosewise additivity) of anti-HIV activity,in combination with amprenavir,synergistic
same,interaction (deviation from dosewise additivity) of anti-HIV activity,in combination with efavirenz,synergistic
same,interaction (deviation from dosewise additivity) of anti-HIV activity,in combination with enfuvirtide,synergistic
same,interaction (deviation from dosewise additivity) of anti-HIV activity,in combination with lopinavir,synergistic
same,interaction (deviation from dosewise additivity) of anti-HIV activity,in combination with maraviroc,additive
same,interaction (deviation from dosewise additivity) of anti-HIV activity,in combination with nevirapine,synergistic
same,interaction (deviation from dosewise additivity) of anti-HIV activity,in combination with raltegravir,additive
same,interaction (deviation from dosewise additivity) of anti-HIV activity,in combination with stavudine,synergistic
same,effect of the presence of ribavirin on anti-HIV activity,in the presence of ribavirin,not affected
